The numbers were not newly measured in US11986533B2, “Macromonomers and bottle brush polymers for delivery of biological agents” (Regents of the University of Minnesota, priority 2021, dated 2024), which cites them from elsewhere.

What is called log P is the decadic logarithm of the partition coefficient of the neutral form, usually between octanol and water.

For the molecule `O=C1NC(=O)C(c2ccccc2)(c2ccccc2)N1` [phenytoin], the lipophilicity (log P) is recorded as 2.14.
